Residue numbers refer to the chain shown, from its start. Like-named read-outs stand apart in the source and are kept apart here.
Columns and labels:
[1] = molecular target: T1, RET (658-1114) (Homo sapiens, UniProt P07949); assay: HiBiT-Degradation, RET wild-type degradation assay (Nano-Glo HiBiT Lytic), 293T.144 cells; format: cell-based; settings: for Emax / DC50: 6.0 hours
T1 construct: 658-1114; expressed in transfected cells; host or cells: 293T.144 (293T cells, generated in-house)
T1 sequence (P07949 658-1114): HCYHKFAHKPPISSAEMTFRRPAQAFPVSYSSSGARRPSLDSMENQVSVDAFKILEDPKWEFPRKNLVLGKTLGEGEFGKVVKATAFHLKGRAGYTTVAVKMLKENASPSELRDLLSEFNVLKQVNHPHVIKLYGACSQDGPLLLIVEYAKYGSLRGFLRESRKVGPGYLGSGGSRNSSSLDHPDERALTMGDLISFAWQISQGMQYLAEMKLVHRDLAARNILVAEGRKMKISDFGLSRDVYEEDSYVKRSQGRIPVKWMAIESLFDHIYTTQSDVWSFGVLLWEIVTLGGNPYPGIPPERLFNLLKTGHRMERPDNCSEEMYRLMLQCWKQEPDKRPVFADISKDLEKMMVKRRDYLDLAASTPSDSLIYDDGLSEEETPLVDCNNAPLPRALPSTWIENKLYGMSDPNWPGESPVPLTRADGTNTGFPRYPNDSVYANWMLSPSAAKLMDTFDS
Procedure, shortened: (§1)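 HEK293T lines expressing HiBiT-tagged RET kinase domain, wild-type (293T.144) or G810R (293T.165), treated 6 h in duplicate, 11-point half-log series from 10 μM top. Lytic HiBiT luminescence read; DC50 and Emax (% protein remaining) from dose-response curves.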

[2] = molecular target: T2, RET(KD: 658-1114 G810R) (Homo sapiens, UniProt P07949, G810R); assay: HiBiT-Degradation, RET G810R degradation assay (Nano-Glo HiBiT Lytic), 293T.165 cells; format: cell-based; settings: for Emax / DC50: 6.0 hours
T2 construct: 658-1114; expressed in transfected cells; host or cells: 293T.165 (293T cells, generated in-house)
T2 sequence (P07949 658-1114 G810R): T1 sequence (P07949 658-1114) with G153R
Procedure, shortened: as §1

[3] = % remaining protein, read-out: 293T.144 RET (658-1114) 6.0 hours (Emax)
[4] = half-maximal degradation concentration, read-out: 293T.144 RET (658-1114) 6.0 hours (DC50)
[5] = % remaining protein, read-out: 293T.165 RET(KD: 658-1114 G810R) 6.0 hours (Emax)
[6] = half-maximal degradation concentration, read-out: 293T.165 RET(KD: 658-1114 G810R) 6.0 hours (DC50)

293T.144 RET (658-1114) 6.0 hours (IP) [nM] [1] | Emax [1, 3] [%] | DC50 [1, 4] [nM] | 293T.165 RET(KD: 658-1114 G810R) 6.0 hours (IP) [nM] [2] | Emax [2, 5] [%] | DC50 [2, 6] [nM] | 293T.144 RET (658-1114) 6.0 hours (IP) [nM] ([1]; HiBiT-Degradation) | DC50 ([1]; HiBiT-Degradation, read-out: 293T.144 RET (658-1114) 6.0 hours (DC50)) [nM] | Emax ([1]; HiBiT-Degradation, read-out: 293T.144 RET (658-1114) 6.0 hours (Emax)) [%] | 293T.165 RET(KD: 658-1114 G810R) 6.0 hours (Emax) ([2]; HiBiT-Degradation) | 293T.165 RET(KD: 658-1114 G810R) 6.0 hours (IP) [nM] ([2]; HiBiT-Degradation) | DC50 ([2]; HiBiT-Degradation, read-out: 293T.165 RET(KD: 658-1114 G810R) 6.0 hours (DC50)) [nM] | HiBiT-Degradation 293T.144 RET (658-1114) 6.0 hours (IP) [nM] ([1]; RET wild-type) | DC50 ([1]; RET wild-type, read-out: HiBiT-Degradation 293T.144 RET (658-1114) 6.0 hours (DC50)) [nM] | Emax ([1]; RET wild-type, read-out: HiBiT-Degradation 293T.144 RET (658-1114) 6.0 hours (Emax)) [%] | HiBiT-Degradation 293T.165 RET(KD: 658-1114 G810R) 6.0 hours (IP) [nM] ([2]; RET G810R) | DC50 ([2]; RET G810R, read-out: HiBiT-Degradation 293T.165 RET(KD: 658-1114 G810R) 6.0 hours (DC50)) [nM] | Emax ([2]; RET G810R, read-out: HiBiT-Degradation 293T.165 RET(KD: 658-1114 G810R) 6.0 hours (Emax)) [%] | SMILES
– | – | – | – | < 50 | < 50 | ++++ (< 50 nM = ++++) | < 50 | < 30 | +++ (<50% = +++) | ++++ (< 50 nM = ++++) | < 50 | – | – | – | – | – | – | CC(C)NC(=O)C1(C)CCN(c2ccc(-c3cc(-c4ccc(N5CCN(C(=O)CC6(O)CCN(c7ccc(NC8CCC(=O)NC8=O)cc7F)CC6)CC5)cc4)cn4ncc(C#N)c34)cn2)CC1 (stereo not shown) [Compound 32, 1-(5-(3-Cyano-6-(4-(4-(2-(1-(4-((2,6-dioxopiperidin-3-yl)amino)-2-fluorophenyl)-4-hydroxypiperidin-4-yl)acetyl)piperazin-1-yl)phenyl)pyrazolo[1,5-a]pyridin-4-yl)pyridin-2-yl)-N-isopropyl-4-methylpiperidine-4-carboxamide]
– | – | – | – | < 30 | < 50 | – | – | – | – | – | – | ++++ (< 50 nM = ++++) | < 50 | < 30 | ++++ (< 50 nM = ++++) | < 50 | < 30 | CCC1(C(=O)NC(C)C)CCN(c2ccc(-c3nc(-c4cnn(C5CCN(C(=O)CC6(O)CCN(c7ccc(N[C@@H]8CCC(=O)NC8=O)cc7F)CC6)CC5)c4)cn4ncc(C#N)c34)cn2)CC1 (single isomer, unassigned) [Compound 79]
++++ (<50 nM = ++++) | < 30 | < 50 | ++++ (<50 nM = ++++) | < 30 | < 50 | – | – | – | – | – | – | – | – | – | – | – | – | N#Cc1cnn2cc(-c3cnn([C@H]4CC[C@H](N5CCC(c6ccc(NC7CCC(=O)NC7=O)cc6F)CC5)CC4)c3)nc(-c3ccc(N4CCC5(CC4)OCc4cccnc45)nc3)c12 (single isomer, unassigned) [Compound 148, 4-(6-(5H-Spiro[furo[3,4-b]pyridine-7,4′-piperidin]-1′-yl)pyridin-3-yl)-6-(1-((1r, 4r)-4-(4-(4-((2,6-dioxopiperidin-3-yl)amino)-2-fluorophenyl)piperidin-1-yl)cyclohexyl)-1H-pyrazol-4-yl)pyrazolo[1,5-a]pyrazine-3-carbonitrile]
++++ (<50 nM = ++++) | < 30 | < 50 | ++++ (<50 nM = ++++) | < 50 | < 50 | – | – | – | – | – | – | – | – | – | – | – | – | CCC1(C(=O)NC(C)C)CCN(c2ccc(-c3nc(-c4cnn(C5CCC6(CC5)CN(C(=O)CC5(O)CCN(c7ccc(NC8CCC(=O)NC8=O)cc7F)CC5)C6)c4)cn4ncc(C#N)c34)cn2)CC1 (stereo not shown) [Compound 182, 1-(5-(3-Cyano-6-(1-(2-(2-(1-(4-((2,6-dioxopiperidin-3-yl)amino)-2-fluorophenyl)-4-hydroxypiperidin-4-yl)acetyl)-2-azaspiro[3.5]nonan-7-yl)-1H-pyrazol-4-yl)pyrazolo[1,5-a]pyrazin-4-yl)pyridin-2-yl)-4-ethyl-N-isopropylpiperidine-4-carboxamide]

SMILES | 293T.144 RET (658-1114) 6.0 hours (IP) [nM] [1] | Emax [1, 3] [%] | DC50 [1, 4] [nM] | 293T.165 RET(KD: 658-1114 G810R) 6.0 hours (IP) [nM] [2] | Emax [2, 5] [%] | DC50 [2, 6] [nM] | 293T.144 RET (658-1114) 6.0 hours (IP) [nM] ([1]; HiBiT-Degradation) | DC50 ([1]; HiBiT-Degradation, read-out: 293T.144 RET (658-1114) 6.0 hours (DC50)) [nM] | Emax ([1]; HiBiT-Degradation, read-out: 293T.144 RET (658-1114) 6.0 hours (Emax)) [%] | 293T.165 RET(KD: 658-1114 G810R) 6.0 hours (Emax) ([2]; HiBiT-Degradation) | 293T.165 RET(KD: 658-1114 G810R) 6.0 hours (IP) [nM] ([2]; HiBiT-Degradation) | DC50 ([2]; HiBiT-Degradation, read-out: 293T.165 RET(KD: 658-1114 G810R) 6.0 hours (DC50)) [nM] | HiBiT-Degradation 293T.144 RET (658-1114) 6.0 hours (IP) [nM] ([1]; RET wild-type) | DC50 ([1]; RET wild-type, read-out: HiBiT-Degradation 293T.144 RET (658-1114) 6.0 hours (DC50)) [nM] | Emax ([1]; RET wild-type, read-out: HiBiT-Degradation 293T.144 RET (658-1114) 6.0 hours (Emax)) [%] | HiBiT-Degradation 293T.165 RET(KD: 658-1114 G810R) 6.0 hours (IP) [nM] ([2]; RET G810R) | DC50 ([2]; RET G810R, read-out: HiBiT-Degradation 293T.165 RET(KD: 658-1114 G810R) 6.0 hours (DC50)) [nM] | Emax ([2]; RET G810R, read-out: HiBiT-Degradation 293T.165 RET(KD: 658-1114 G810R) 6.0 hours (Emax)) [%]
Cn1nc(N2CCC(=O)NC2=O)c2ccc(N3CCN([C@H]4CC[C@H](n5cc(-c6cn7ncc(C#N)c7c(-c7ccc(N8C[C@H]9COC[C@@H](C8)N9Cc8ccccn8)nc7)n6)cn5)CC4)CC3)c(F)c21 [Compound 208, 6-[1-[4-[4-[3-(2,4-dioxohexahydropyrimidin-1-yl)-7-fluoro-1-methyl-indazol-6-yl]piperazin-1-yl]cyclohexyl]pyrazol-4-yl]-4-[6-[(1S,5R)-9-(2-pyridylmethyl)-3-oxa-7,9-diazabicyclo[3.3.1]nonan-7-yl]-3-pyridyl]pyrazolo[1,5-a]pyrazine-3-carbonitrile] | ++++ (<50 nM = ++++) | < 30 | < 50 | ++++ (<50 nM = ++++) | < 30 | < 100 | – | – | – | – | – | – | – | – | – | – | – | –
